# Measured values published in patent US20150191469A1, “COMPOUNDS AND METHODS FOR TREATING HIV” (priority 2012, published 2015).
# Where a name gives a salt, the structure may show the parent alone.
# Test system: HIV
# Assay: MT4 assay: antiviral HIV activity (cell protection, cell titer glo readout at 96 hours)
# Format: cell-based
# Details: Human immunodeficiency virus 1, MT4, 96 h, MT4 cells, cell titer glo readout at 96 hours, 10 point dose response; read-out: HIV MT4 Assay IC50
# In short: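 MT-4 cells infected with HIV, with inhibition readout by CellTiter-Glo luminescence at 96 h relative to no-compound control. Cytotoxicity measured in parallel under the same conditions. IC50 from a 10-point, 3-4-fold dilution series spanning >1000-fold, fitted with a four-parameter logistic equation.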
row,Structure (SMILES),IC50 [µM]
1,"Cc1nc2c(cc(-c3ccnc(-c4ccc5c(cnn5C)c4)c3)n2C)c(-c2ccc3c(c2C)CCCO3)c1[C@H](OC(C)(C)C)C(=O)O (atropisomer, axis not shown; (M)) [Example 1, (2S)(M)-2-(tert-butoxy)-2-(1,6-dimethyl-2-(2-(1-methyl-1H-indazol-5-yl)pyridin-4-yl)-4-(5-methylchroman-6-yl)-1H-pyrrolo[2,3-b]pyridin-5-yl)acetic acid]",0.0017
2,"Cc1nc2c(cc(-c3nc(N4CCN(C5CCOCC5)CC4)no3)n2C)c(-c2cc(F)c3c(c2C)CCCO3)c1[C@H](OC(C)(C)C)C(=O)O (atropisomer, axis not shown; (M)) [Example 27, (2S)(M)-2-(tert-butoxy)-2-(4-(8-fluoro-5-methylchroman-6-yl)-1,6-dimethyl-2-(3-(4-(tetrahydro-2H-pyran-4-yl)piperazin-1-yl)-1,2,4-oxadiazol-5-yl)-1H-pyrrolo[2,3-b]pyridin-5-yl)acetic acid]",0.0046
3,"Cc1nc2c(cc(-c3nnc(-c4ccc5c(cnn5C)c4)o3)n2C)c(-c2cc(F)c3c(c2C)CCCO3)c1[C@H](OC(C)(C)C)C(=O)O (atropisomer, axis not shown; (M)) [Example 28, (2S)(M)-2-(tert-butoxy)-2-(4-(8-fluoro-5-methylchroman-6-yl)-1,6-dimethyl-2-(5-(1-methyl-1H-indazol-5-yl)-1,3,4-oxadiazol-2-yl)-1H-pyrrolo[2,3-b]pyridin-5-yl)acetic acid]",0.0018
4,"Cc1nc2c(cc3n2CCCC3)c(-c2cc(F)c3c(c2C)CCCO3)c1[C@H](OC(C)(C)C)C(=O)O (atropisomer, axis not shown; (M)) [Example 29, (2S)(M)-2-(tert-butoxy)-2-(4-(8-fluoro-5-methylchroman-6-yl)-2-methyl-6,7,8,9-tetrahydropyrido[3,2-b]indolizin-3-yl)acetic acid]",0.0138
5,"Cc1nc2c(cc(-c3ccn(C4CN(C)C4)n3)n2C)c(-c2cc(F)c3c(c2C)CCCO3)c1[C@H](OC(C)(C)C)C(=O)O (atropisomer, axis not shown; (M)) [Example 129, (2S)(M)-2-(tert-butoxy)-2-(-4-(8-fluoro-5-methylchroman-6-yl)-1,6-dimethyl-2-(1-(1-methylazetidin-3-yl)-1H-pyrazol-3-yl)-1H-pyrrolo[2,3-b]pyridin-5-yl)acetic acid]",0.0452
6,"Cc1nc2c(cc(-c3ccnc(C(=O)N4CCN(c5ccccc5)CC4)c3)n2C)c(-c2cc(F)c3c(c2C)CCCO3)c1[C@H](OC(C)(C)C)C(=O)O (atropisomer, axis not shown; (M)) [Example 145]",0.0453
7,"Cc1nc2c(cc(-c3ccnc(C#Cc4cncn4C)c3)n2C)c(-c2cc(F)c3c(c2C)CCCO3)c1[C@H](OC(C)(C)C)C(=O)O (atropisomer, axis not shown; (M)) [Example 154, (2S)(M)-2-(tert-butoxy)-2-(-4-(8-fluoro-5-methylchroman-6-yl)-1,6-dimethyl-2-(2-((1-methyl-1H-imidazol-5-yl)ethynyl)pyridin-4-yl)-1H-pyrrolo[2,3-b]pyridin-5-yl)acetic acid]",0.011
8,"Cc1nc2c(cc(C(=S)N3CCC(c4ccccc4)CC3)n2C)c(-c2cc(F)c3c(c2C)CCCO3)c1[C@H](OC(C)(C)C)C(=O)O (atropisomer, axis not shown; (M)) [Example 281, (2S)(M)-2-(tert-butoxy)-2-(-4-(8-fluoro-5-methylchroman-6-yl)-1,6-dimethyl-2-(4-phenylpiperidine-1-carbonothioyl)-1H-pyrrolo[2,3-b]pyridin-5-yl)acetic acid]",0.0383
9,"Cc1nc2c(cc(CCc3ccccc3)n2C)c(-c2cc(F)c3c(c2C)CCCO3)c1[C@H](OC(C)(C)C)C(=O)O (atropisomer, axis not shown; (M)) [Example 282, (2S)(M)-2-(tert-butoxy)-2-(-4-(8-fluoro-5-methylchroman-6-yl)-1,6-dimethyl-2-phenethyl-1H-pyrrolo[2,3-b]pyridin-5-yl)acetic acid]",0.0568
10,"Cc1nc2c(cc(CN3CCCCC3)n2C)c(-c2cc(F)c3c(c2C)CCCO3)c1[C@H](OC(C)(C)C)C(=O)O (atropisomer, axis not shown; (M)) [Example 288, (2S)(M)-2-(tert-butoxy)-2-(-4-(8-fluoro-5-methylchroman-6-yl)-1,6-dimethyl-2-(piperidin-1-ylmethyl)-1H-pyrrolo[2,3-b]pyridin-5-yl)acetic acid]",0.25
11,"Cc1nc2c(cc(CCC(=O)NCc3ccc(F)cc3)n2C)c(-c2cc(F)c3c(c2C)CCCO3)c1[C@H](OC(C)(C)C)C(=O)O (atropisomer, axis not shown; (M)) [Example 297, (2S)(M) 2-(tert-butoxy)-2-((R)-4-(8-fluoro-5-methylchroman-6-yl)-2-(3-((4-fluorobenzyl)amino)-3-oxopropyl)-1,6-dimethyl-1H-pyrrolo[2,3-b]pyridin-5-yl)acetic acid]",0.13
12,"Cc1nc2c(cc(-c3nnc(N4CCN(C5CCOCC5)CC4)o3)n2C)c(-c2cc(F)c3c(c2C)CCCO3)c1[C@H](OC(C)(C)C)C(=O)O (atropisomer, axis not shown; (M)) [Example 300, (2S)(M)-2-(tert-butoxy)-2-(-4-(8-fluoro-5-methylchroman-6-yl)-1,6-dimethyl-2-(5-(4-(tetrahydro-2H-pyran-4-yl)piperazin-1-yl)-1,3,4-oxadiazol-2-yl)-1H-pyrrolo[2,3-b]pyridin-5-yl)acetic acid]",0.0104
13,"Cc1nc2c(cc(-c3nc(-c4ccc5c(cnn5C)c4)no3)n2C)c(-c2cc(F)c3c(c2C)CCCO3)c1[C@H](OC(C)(C)C)C(=O)O (atropisomer, axis not shown; (M)) [Example 354, (2S)(M)-2-(tert-butoxy)-2-(4-(8-fluoro-5-methylchroman-6-yl)-1,6-dimethyl-2-(3-(1-methyl-1H-indazol-5-yl)-1,2,4-oxadiazol-5-yl)-1H-pyrrolo[2,3-b]pyridin-5-yl)acetic acid]",0.005
14,"Cc1nc2c(cc(-c3nc(-c4ccc5c(cnn5C)c4)ns3)n2C)c(-c2cc(F)c3c(c2C)CCCO3)c1[C@H](OC(C)(C)C)C(=O)O (atropisomer, axis not shown; (M)) [Example 355, (2S)(M)-2-(tert-butoxy)-2-(-4-(8-fluoro-5-methylchroman-6-yl)-1,6-dimethyl-2-(3-(1-methyl-1H-indazol-5-yl)-1,2,4-thiadiazol-5-yl)-1H-pyrrolo[2,3-b]pyridin-5-yl)acetic acid]",0.0047
15,"Cc1nc2c(cc(-c3nnc(-c4ccc5c(cnn5C)c4)s3)n2C)c(-c2cc(F)c3c(c2C)CCCO3)c1[C@H](OC(C)(C)C)C(=O)O (atropisomer, axis not shown; (M)) [Example 356, (2S)(M)-2-(tert-butoxy)-2-(-4-(8-fluoro-5-methylchroman-6-yl)-1,6-dimethyl-2-(5-(1-methyl-1H-indazol-5-yl)-1,3,4-thiadiazol-2-yl)-1H-pyrrolo[2,3-b]pyridin-5-yl)acetic acid]",0.0098
16,"Cc1nc2c(cc(-c3nsc(-c4ccc5c(cnn5C)c4)n3)n2C)c(-c2cc(F)c3c(c2C)CCCO3)c1[C@H](OC(C)(C)C)C(=O)O (atropisomer, axis not shown; (M)) [Example 357, (2S)(M)-2-(tert-butoxy)-2-(-4-(8-fluoro-5-methylchroman-6-yl)-1,6-dimethyl-2-(5-(1-methyl-1H-indazol-5-yl)-1,2,4-thiadiazol-3-yl)-1H-pyrrolo[2,3-b]pyridin-5-yl)acetic acid]",0.004
17,"Cc1nc2c(cc(-c3nccc(N4CCN(C5CCOCC5)CC4)n3)n2C)c(-c2cc(F)c3c(c2C)CCCO3)c1[C@H](OC(C)(C)C)C(=O)O (atropisomer, axis not shown; (M)) [Example 358]",0.0176
18,"Cc1nc2c(cc(-c3nc(N4C[C@@H](C)O[C@@H](C)C4)no3)n2C)c(-c2cc(F)c3c(c2C)CCCO3)c1[C@H](OC(C)(C)C)C(=O)O (atropisomer, axis not shown; (M)) [Example 410, (2S)(M)-2-(tert-butoxy)-2-(-2-(3-((2S,6R)-2,6-dimethylmorpholino)-1,2,4-oxadiazol-5-yl)-4-(8-fluoro-5-methylchroman-6-yl)-1,6-dimethyl-1H-pyrrolo[2,3-b]pyridin-5-yl)acetic acid]",0.0031
19,"Cc1nc2c(cc(-c3noc(N4CCC(C)CC4)n3)n2C)c(-c2cc(F)c3c(c2C)CCCO3)c1[C@H](OC(C)(C)C)C(=O)O (atropisomer, axis not shown; (M)) [Example 411, (2S)(M)-2-(tert-butoxy)-2-(-4-(8-fluoro-5-methylchroman-6-yl)-1,6-dimethyl-2-(5-(4-methylpiperidin-1-yl)-1,2,4-oxadiazol-3-yl)-1H-pyrrolo[2,3-b]pyridin-5-yl)acetic acid]",0.0076

# Same assay, conditions: Human immunodeficiency virus 1, MT4, 96 h, read-out: HIV MT4 Assay IC50
row,Structure (SMILES),IC50 [µM]
1,"Cc1nc2c(cc(C(=O)N3CCN(C4CCCC4)CC3)n2C)c(-c2cc(F)c3c(c2C)CCCO3)c1[C@H](OC(C)(C)C)C(=O)O (atropisomer, axis not shown; (M)) [Example 161, (2S)(M)-2-(tert-butoxy)-2-(2-(4-cyclopentylpiperazine-1-carbonyl)-4-(8-fluoro-5-methylchroman-6-yl)-1,6-dimethyl-1H-pyrrolo[2,3-b]pyridin-5-yl)acetic acid ditrifluoroacetic acid salt]",0.0379

# Same assay, conditions: MT4 cells, cell titer glo readout at 96 hours, 10 point dose response; read-out: HIV MT4 Assay IC50
row,Structure (SMILES),IC50 [µM]
1,"Cc1nc2c(cc(-c3nc(N4CCN(C5CCOCC5)CC4)ns3)n2C)c(-c2cc(F)c3c(c2C)CCCO3)c1[C@H](OC(C)(C)C)C(=O)O (atropisomer, axis not shown; (M)) [Example 26, (2S)(M)-2-(tert-butoxy)-2-(4-(8-fluoro-5-methylchroman-6-yl)-1,6-dimethyl-2-(3-(4-(tetrahydro-2H-pyran-4-yl)piperazin-1-yl)-1,2,4-thiadiazol-5-yl)-1H-pyrrolo[2,3-b]pyridin-5-yl)acetic acid]",0.0029
